In US5425942A, “Polyfunctinal protease” (Otsuka Pharamceutical Co., Ltd., priority 1988, dated 1995):
Where “and” joins values, the source holds several entries; their conditions need not be identical. Equal entries are not always repeated. Where two headings read alike, the source gives them in different places.

Target: T1, human proteasome (Homo sapiens, UniProt P28072+P28074+Q99436)
T1 construct: The desired homogeneous human proteasome was thus recovered in the fraction at about 340 mM KCl; from tissue
Assay: Activity inhibition of human proteasome by protease inhibitors
Format: biochemical

Inhibition Rate (%) by Inhibitor (substrate Cbz-Ala-Arg-Arg-MNA, inhibitor 50 μg/ml, 2 μg proteasome, room temperature, one hour, optimal pH)	Inhibition Rate (%) by Inhibitor (substrate Cbz-Leu-Leu-Glu-NA, inhibitor 50 μg/ml, 2 μg proteasome, room temperature, one hour, optimal pH)	Inhibition Rate (%) by Inhibitor (substrate Suc-Leu-Leu-Val-Tyr-MCA, inhibitor 50 μg/ml, 2 μg proteasome, room temperature, one hour, optimal pH)	Compound	Inhibition Rate (%) by Inhibitor	inhibition at 10000 µM (read-out: Inhibition Rate (%) by Inhibitor)
			CCN1C(=O)C=CC1=O [C, N-ethylmaleimide]	96% and 99%	88%
19%	0%	75%	Chymostatin [B]		
